Data from ChEMBL document CHEMBL2429763, “Nonbenzamidine acylsulfonamide tissue factor-factor VIIa inhibitors” (Bioorg Med Chem Lett, 2013).
Calls of active or inactive are those of the source. The calls are words filed in the database; no cut-off is given here.

How the values were obtained:
[1] = target: Coagulation factor X (Homo sapiens, UniProt P00742); assay: Inhibition of factor 10a (unknown origin)
[2] = target: T1, Coagulation factor VII/tissue factor (Homo sapiens) (UniProt P08709+P13726); assay: Competitive inhibition of human recombinant soluble tissue factor-factor 7a using tripeptide as substrate; assay type: protein-complex assay
[3] = target: Coagulation factor VII/tissue factor (Homo sapiens, UniProt P08709); assay: Inhibition of human recombinant soluble tissue factor-factor 7a using H-D-Ile-Pro-Arg-pNA as substrate; assay type: protein-complex assay
Coagulation factor VII/tissue factor, sequence (P08709 61-212 limits assumed): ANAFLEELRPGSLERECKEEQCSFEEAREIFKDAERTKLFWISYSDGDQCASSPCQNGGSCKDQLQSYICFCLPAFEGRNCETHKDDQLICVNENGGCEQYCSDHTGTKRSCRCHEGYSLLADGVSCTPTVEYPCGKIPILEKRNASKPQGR
Coagulation factor VII/tissue factor, sequence (P08709 213-466 limits assumed): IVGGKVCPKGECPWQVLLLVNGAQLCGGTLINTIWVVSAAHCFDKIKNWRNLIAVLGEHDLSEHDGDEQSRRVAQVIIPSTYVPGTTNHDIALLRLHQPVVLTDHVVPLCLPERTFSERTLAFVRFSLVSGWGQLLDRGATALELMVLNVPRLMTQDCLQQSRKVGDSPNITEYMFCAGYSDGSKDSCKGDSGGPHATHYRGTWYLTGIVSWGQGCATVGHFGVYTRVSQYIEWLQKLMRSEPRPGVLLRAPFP
Coagulation factor VII/tissue factor, sequence (P13726 33-295 partner limits assumed): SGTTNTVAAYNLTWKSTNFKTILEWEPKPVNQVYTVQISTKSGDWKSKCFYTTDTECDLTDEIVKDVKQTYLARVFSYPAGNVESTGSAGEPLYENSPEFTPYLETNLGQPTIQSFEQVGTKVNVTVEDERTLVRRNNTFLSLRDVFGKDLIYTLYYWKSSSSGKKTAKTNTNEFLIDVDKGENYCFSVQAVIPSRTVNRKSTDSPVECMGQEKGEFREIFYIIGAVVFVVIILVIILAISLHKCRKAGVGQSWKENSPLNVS

[4] = Dissociation constant, pKa of the compound; assay type: physicochemical
[5] = target: Trypsin (Homo sapiens, UniProt P07477+P07478+P35030); assay: Inhibition of trypsin (unknown origin); assay type: protein assay
[6] = target: T1, Coagulation factor VII/tissue factor (Homo sapiens); assay: Noncompetitive inhibition of human recombinant soluble tissue factor-factor 7a using physiological substrate; assay type: protein-complex assay
[7] = target: Prothrombin (Homo sapiens, UniProt P00734); assay: Inhibition of thrombin (unknown origin)
[8] = Anticoagulant activity in plasma (unknown origin) assessed as concentration required to double prothrombin time; assay type: functional, unidentified
[9] = Oral bioavailability in dog at 0.5 mg/kg; assay type: ADME, organism-based, Canis lupus familiaris; conditions: in vivo
[10] = Half life in dog at 0.2 mg/kg, iv; assay type: ADME, organism-based, Canis lupus familiaris; set-up: dose 0.2 mg/kg, route intravenous; conditions: in vivo
[11] = Volume of distribution at steady state in dog at 0.2 mg/kg, iv; assay type: ADME, organism-based, Canis lupus familiaris; set-up: dose 0.2 mg/kg, route intravenous; conditions: in vivo, read-out: Vdss
[12] = Clearance in dog at 0.2 mg/kg, iv; assay type: ADME, organism-based, Canis lupus familiaris; set-up: dose 0.2 mg/kg, route intravenous; conditions: in vivo

Coagulation factor X, sequence (P00742 41-179 limits assumed): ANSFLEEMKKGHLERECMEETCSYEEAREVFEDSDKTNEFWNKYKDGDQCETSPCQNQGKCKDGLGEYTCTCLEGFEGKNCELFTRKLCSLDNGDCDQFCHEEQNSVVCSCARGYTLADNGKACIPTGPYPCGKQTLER
Coagulation factor X, sequence (P00742 235-488 limits assumed): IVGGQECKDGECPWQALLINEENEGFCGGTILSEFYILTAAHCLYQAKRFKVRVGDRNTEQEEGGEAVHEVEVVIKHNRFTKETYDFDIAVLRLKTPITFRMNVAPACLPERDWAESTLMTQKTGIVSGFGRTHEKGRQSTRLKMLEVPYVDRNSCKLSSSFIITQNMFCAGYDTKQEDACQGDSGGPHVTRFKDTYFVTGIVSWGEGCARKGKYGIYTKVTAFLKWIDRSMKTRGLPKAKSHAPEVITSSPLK

| Ki [1] [µM] | Ki [3] [µM] | Ki [5] [µM] | Ki [7] [µM] | Compound | further results |
| --- | --- | --- | --- | --- | --- |
| > 8 | 0.145 | > 5 | > 13 | CCOc1cc(C(Nc2ccc3cnccc3c2)C(=O)NS(=O)(=O)c2cccc(S(C)(=O)=O)c2)ccc1OC(C)C (centres undefined) |  |
| > 8 | 0.017 | > 5 | > 13 | CCOc1cc([C@@H](Nc2ccc3cnccc3c2)C(=O)NS(=O)(=O)c2cccc(S(N)(=O)=O)c2)ccc1OC(C)C |  |
| > 8 | 8.1 | > 5 | > 13 | CCOc1cc(C(Nc2ccc3cnccc3c2)C(=O)NS(=O)(=O)c2ccc(S(C)(=O)=O)cc2)ccc1OC(C)C (centres undefined) |  |
|  | 0.39 |  |  | CCOc1cc(C(Nc2ccc3c(N)ncnc3c2)C(=O)NS(=O)(=O)c2ccccc2)ccc1OC(C)C (centres undefined) |  |
| > 8 | 0.044 | > 5 | > 13 | CCOc1cc([C@@H](Nc2ccc3cnccc3c2)C(=O)NS(=O)(=O)c2ccccc2)ccc1OC(C)C | bioavailability [9]: 36%; half-life [10]: 0.9 h; 2PT [8]: >80 µM; Vd [11]: 0.6 L/kg; clearance [12]: 9.3 mL/min/kg |
| 5.9 | 0.01 | > 5 | > 13 | CCOc1cc(C(Nc2ccc3c(N)nccc3c2)C(=O)NS(=O)(=O)c2cccc(S(N)(=O)=O)c2)ccc1OC(C)C (centres undefined) |  |
| > 8 | 0.32 | > 5 | > 13 | CCOc1cc(C(Nc2ccc3cnccc3c2)C(=O)NS(=O)(=O)c2ccc(S(N)(=O)=O)cc2)ccc1OC(C)C (centres undefined) |  |
| > 8 | 0.012 | > 5 | 10.3 | CCOc1cc(C(Nc2ccc3cnccc3c2)C(=O)NS(=O)(=O)c2ccccc2S(C)(=O)=O)ccc1OC(C)C (centres undefined) | 2PT [8]: 76 µM |
|  | 2.9 |  |  | CCOc1cc(C(Nc2ccc3c(N)n[nH]c3c2)C(=O)NS(=O)(=O)c2ccccc2)ccc1OC(C)C (centres undefined) |  |
|  | 0.67 |  |  | CCOc1cc(C(Nc2ccc3nc(N)[nH]c3c2)C(=O)NS(=O)(=O)c2ccccc2)ccc1OC(C)C (centres undefined) |  |
| > 8 | 0.007 | > 5 | > 13 | CCOc1cc(C(Nc2ccc3c(N)nccc3c2)C(=O)NS(=O)(=O)c2ccc(O)cc2)ccc1OC(C)C (centres undefined) |  |
| > 8 | 0.048 | > 5 | > 13 | CCOc1cc(C(Nc2ccc3c(N)nccc3c2)C(=O)NS(=O)(=O)c2cccc(N)c2)ccc1OC(C)C (centres undefined) |  |
| 8.2 |  | > 5 | > 13 | CCOc1cc([C@H](Nc2ccc3c(N)nccc3c2)C(=O)NS(=O)(=O)c2ccccc2)ccc1OC(C)C |  |
| 5.5 | 0.026 | > 5 | 11 | CCOc1cc(C(Nc2ccc3c(N)nccc3c2)C(=O)NS(=O)(=O)c2cccc(O)c2)ccc1OC(C)C (centres undefined) |  |
|  | 0.0013 |  |  | CCOc1cc(C(Nc2ccc(C(=N)N)cc2)C(=O)NS(=O)(=O)c2ccccc2)ccc1OC(C)C (centres undefined) | inhibition [2]: Active; 2PT [8]: 4 µM; inhibition [6]: Active |

More lines, now with the values behind:

| Compound | Ki [1] [µM] | Ki [3] [µM] | Ki [5] [µM] | Ki [7] [µM] | further results |
| --- | --- | --- | --- | --- | --- |
| CCOc1cc(C(Nc2ccc3cnccc3c2)C(=O)NS(=O)(=O)c2ccccc2)ccc1OC(C)C (centres undefined) | 5.4 | 0.07 | > 5 | > 13 | inhibition [2]: Active; pKa [4]: 7.8; inhibition [6]: Active |
| CCOc1cc(C(Nc2ccc3cnccc3c2)C(=O)NS(=O)(=O)c2cccc(S(=O)(=O)NC)c2)ccc1OC(C)C (centres undefined) | 7 | 0.25 | > 5 | > 13 |  |
| CCOc1cc(C(Nc2ccc3cnccc3c2)C(=O)NS(=O)(=O)c2cccc(S(=O)(=O)N(C)C)c2)ccc1OC(C)C (centres undefined) | 7.2 | 0.78 | > 5 | > 13 |  |
| CCOc1cc([C@@H](Nc2ccc3c(N)nccc3c2)C(=O)NS(=O)(=O)c2cccc(S(N)(=O)=O)c2)ccc1OC(C)C | 5.6 | 0.0028 | > 5 | 9.4 | 2PT [8]: 14 µM |
| CCOc1cc(C(Nc2ccc3cnccc3c2)C(=O)NS(=O)(=O)c2ccccc2S(=O)(=O)CC)ccc1OC(C)C (centres undefined) | > 8 | 0.006 | > 5 | 9.4 |  |
| CCOc1cc(C(Nc2ccc3cnccc3c2)C(=O)NS(=O)(=O)c2cccc(S(N)(=O)=O)c2)ccc1OC(C)C (centres undefined) | > 8 | 0.032 | > 5 | > 13 |  |
| CCOc1cc(C(Nc2ccc3cnccc3c2)C(=O)NS(=O)(=O)c2ccccc2S(N)(=O)=O)ccc1OC(C)C (centres undefined) | > 8 | 0.073 | > 5 | > 13 |  |
| CCOc1cc(C(Nc2ccc3c(N)nccc3c2)C(=O)NS(=O)(=O)c2ccc(C)cc2)ccc1OC(C)C (centres undefined) | 3.05 | 0.197 | 3.04 | 2.9 |  |
| CCOc1cc(C(Nc2ccc3c(N)nccc3c2)C(=O)NS(=O)(=O)c2cccc(CO)c2)ccc1OC(C)C (centres undefined) | > 8 | 0.028 | > 5 | 11 |  |
| CCOc1cc(C(Nc2ccc3c(N)nccc3c2)C(=O)NS(=O)(=O)c2cccc(C(N)=O)c2)ccc1OC(C)C (centres undefined) | > 8 | 0.018 | > 5 | > 13 |  |
| CCOc1cc(C(Nc2ccc3c(N)noc3c2)C(=O)NS(=O)(=O)c2ccccc2)ccc1OC(C)C (centres undefined) |  | 1.94 |  |  |  |
| CCOc1cc([C@@H](Nc2ccc3c(N)nccc3c2)C(=O)NS(=O)(=O)c2ccccc2)ccc1OC(C)C | 7.3 |  | > 5 | 6.9 | bioavailability [9]: 4%; half-life [10]: 1.5 h; 2PT [8]: 36 µM; Vd [11]: 1.5 L/kg; clearance [12]: 24 mL/min/kg |
| CCOc1cc(C(Nc2ccc3c(N)nccc3c2)C(=O)NS(=O)(=O)c2ccccc2)ccc1OC(C)C (centres undefined) | 3.5 |  | 4.7 | 4.3 | inhibition [2]: Active; pKa [4]: 8.9; inhibition [6]: Active |
| CCOc1cc(C(Nc2ccc3c(N)nccc3c2)C(=O)NS(=O)(=O)c2ccc(N)cc2)ccc1OC(C)C (centres undefined) | 5.8 | 0.009 | > 5 | 7.4 |  |
